The source of these data is patent US4195018A, “3-[(S)-1'-Phenylethylamino]propylaminobleomycin, non-toxic salt thereof, and method for producing same” (Nippon Kayaku Kabushiki Kaisha, priority 1977, dated 1980).

In data set [1] the test system is Mycobacterium smegmatis ATCC 607 (Mycobacterium 607). The experiment in a line: Antimicrobial potency by the cup method, bleomycin A2 as standard. It is filed as cell-based. Conditions: for Antimicrobial potency: product batches of the Examples, bleomycin A2 (copper-free form) = 1,000 u/mg; for Antimicrobial potency M. 607: bleomycin A2 standard = 1,000 U/mg. As for the experimental part:
(§1) The antimicrobial potency was assayed by the cup method against Mycobacterium 607 and Bacillus subtilis PCI by using bleomycin A2 as standard (1,000 U/mg).
[Note: The antimicrobial potency was assayed using Mycobacterium smegmatis ATCC 607 as assay organism and assuming the potency of bleomycin A2 (copper-free form) as 1,000 u/mg. The same applies hereinafter.]

A short description of data set [2]: Solubility (physicochemical properties). The following applies: solvents as named in the value.
The next data set concerns lung of mice. Kind of data set: Toxicity to the lung of mice (pulmonary fibrosis). In kind it is in vivo, ICR strain mice. The following applies: for Grade: Relative value / Incidence: Relative value: Bleomycin complex = 1.0, 5 mg/kg i.p. x 10 days. As to the method:
ICR strain mice (male, 15 weeks old), 12 in number per group, were used. […]. The dose was administered by intraperitoneal injection, once a day, for 10 consecutive days. After administration, the mice were bred for 5 weeks. After observation, the mice were slaughtered and autopsied to determine the extent of pulmonary fibrosis. […].

A further data set relates to HeLa S3 cell. Kind of data set: Action on cultivated HeLa S3 cell (growth inhibition). It is filed as cell-based. The following applies: for ID50: percentage growth inhibition in 72 hours of culture.
Data set [3] relates to mouse Ehrlich cancer (solid tumor). Kind of data set: Carcinostatic activity to mouse Ehrlich cancer (solid tumor). The following applies: for Percentage inhibition: tumor weight on 15th day vs control; for ID50: Ehrlich solid tumor, 10 doses. In kind it is in vivo, ICR strain mice. As to the method: Each 2×10^6 cells were transplanted subcutaneously into the inguinal region of ICR strain mice (male, 6 weeks old). After 24 hours, each mouse was administered with test preparations in the same manner as described in 1-2 above. On the 15th day after the subcutaneous transplantation, tumors were removed from each mouse and compared the weight with that of tumors developed in the control group, which had received no treatment, to determine the percentage inhibition.

A further data set has as its system AH66 ascites hepatoma. Kind of data set: Carcinostatic activity against ascites hepatoma (ascites type) in rats. In kind it is in vivo, Donryu strain rats. The following applies: control = 100. As for the experimental part: Each 1×10^6 AH66 cells were transplanted intraperitoneally into Donryu strain rats. After 24 hours, the test preparation was intraperitoneally administered once a day for 10 consecutive days. During a period of 30 days after the transplantation, the weight of each rat and the number of dead and survival were observed.

In data set [4] the test system is mouse squamous cell carcinoma induced by 20-methylcholanthrene. The experiment in a line: Inhibitory activity against mouse squamous cell carcinoma induced by 20-methylcholanthrene. It is filed as in vivo, ddy strain mice. Conditions: for Mortality: 62.5 mcg/mouse i.p. twice a week for 15 weeks; for Percentage inhibition: inhibition of carcinogenesis vs control, 62.5 mcg/mouse i.p. The source says: An acetone solution of 20-MC was topically applied to the sheared back of ddy strain mice (male, 10 weeks old), twice a week, for 18 weeks. After 5 weeks from the beginning of the 20-MC treatment, 62.5 mcg/mouse of the test preparation was intraperitoneally applied, twice a week, during a period of 15 weeks. Within the first week after completion of the administration of test preparation, the region where 20-MC had been applied was pathologically examined for the incidence of carcinogenesis.

In a further data set the test system is Bacillus subtilis PCI. The experiment in a line: Antimicrobial potency by the cup method, bleomycin A2 as standard. The following applies: bleomycin A2 standard = 1,000 U/mg. In kind it is cell-based. As for the experimental part:
as §1

The subject of data set [5] is rats. Kind of data set: Acute toxicity in intraperitoneal route (LD50) in rats. The following applies: rat.
The subject of data set [6] is rats.
Setting [7] is: 3.12 mg/kg x 10 i.p., 30 days observation.

SMILES strings stand for the structures. Values after ≈ are worked out from the molar mass of the structure shown. Values joined by “and” are separate entries in the source; they are usually repeats but may differ in a detail not shown here. Equal entries are not always repeated. “Also recorded” adds a separate entry of the source.

Turning to `CC(=O)O.CC(=O)O.Cc1c(N)nc([C@H](CC(N)=O)NC[C@H](N)C(N)=O)nc1C(=O)N[C@H](C(=O)N[C@H](C)[C@@H](O)[C@H](C)C(=O)N[C@H](C(=O)NCCc1nc(-c2nc(C(=O)NCCCN[C@@H](C)c3ccccc3)cs2)cs1)[C@@H](C)O)[C@@H](O[C@@H]1O[C@@H](CO)[C@@H](O)[C@H](O)[C@@H]1O[C@H]1O[C@H](CO)[C@@H](O)[C@H](OC(N)=O)[C@@H]1O)c1cnc[nH]1`, the Antimicrobial potency in [1] is 7,620 u/mg. Also, the Solubility entry in [2] is reported as “Soluble in water, methanol, acetic acid, DMSO, DMF; also recorded: sparingly soluble in dioxane; also recorded: insoluble in ethanol”.
Turning to `Cc1c(N)nc(C(CC(N)=O)NCC(N)C(N)=O)nc1C(=O)NC(C(=O)NC(C)C(O)C(C)C(=O)NC(C(=O)NCCc1nc(-c2nc(C(=O)NCCCNC(C)c3ccccc3)cs2)cs1)C(C)O)C(OC1OC(CO)C(O)C(O)C1OC1OC(CO)C(O)C(OC(N)=O)C1O)c1cnc[nH]1.O=S(=O)(O)O` (mixture of isomers) [RS form, 3-[(R,S)-1'-phenylethylamino]propylaminobleomycin monosulfate (copper-free form), reference compound], in the data set on lung of mice, the “Grade: Relative value” was found to be 0.49. Besides, in the data set with lung of mice, the “Incidence: Relative value” came out at 0.63. The values for the ID50 (in the data set on HeLa S3 cell; in [3]) were 0.80 mg/L and 0.31 mg/kg/day, respectively. Moreover, the Percentage inhibition in data set [3] (0.03 mg/kg x 10) is recorded as 13; in data set [3] (0.1 mg/kg x 10) it was 51; in data set [3] (0.3 mg/kg x 10), 51; in [3] (0.9 mg/kg x 10), 60; in data set [3] (2.7 mg/kg x 10), 78; in [4] it was 47.8. Further, the “Relative value of average survival days” value in the data set with AH66 ascites hepatoma (0.19 mg/kg x 10 i.p.) was found to be 121; in the data set with AH66 ascites hepatoma (0.39 mg/kg x 10 i.p.), 149; with AH66 ascites hepatoma (0.78 mg/kg x 10 i.p.) it was 196; with AH66 ascites hepatoma (1.56 mg/kg x 10 i.p.), 257; in the data set with AH66 ascites hepatoma (setting [7]), 298. Moreover, the Mortality in data set [4] is listed as 1/12. Besides, in data set [1], the “Antimicrobial potency M. 607” value worked out at 7535 U/mg. For the same compound, in the data set with Bacillus subtilis PCI, the “Antimicrobial potency B. Sub.” value is listed as 1400 U/mg. In the data set on rats [5], the LD50 is reported as 150.6 mg(w)/kg.
On to `Cc1c(N)nc([C@H](CC(N)=O)NC[C@H](N)C(N)=O)nc1C(=O)N[C@H](C(=O)N[C@H](C)[C@@H](O)[C@H](C)C(=O)N[C@H](C(=O)NCCc1nc(-c2nc(C(=O)NCCCN[C@@H](C)c3ccccc3)cs2)cs1)[C@@H](C)O)[C@@H](O[C@@H]1O[C@@H](CO)[C@@H](O)[C@H](O)[C@@H]1O[C@H]1O[C@H](CO)[C@@H](O)[C@H](OC(N)=O)[C@@H]1O)c1cnc[nH]1.Cl.Cl.[Cu]` [3-[(S)-1'-phenylethylamino]propylaminobleomycin dihydrochloride (copper-containing form)], for which the Solubility entry in data set [2] is listed as “Soluble in water, methanol”.
As to `Cc1c(N)nc([C@H](CC(N)=O)NC[C@H](N)C(N)=O)nc1C(=O)N[C@H](C(=O)N[C@H](C)[C@@H](O)[C@H](C)C(=O)N[C@H](C(=O)NCCc1nc(-c2nc(C(=O)NCCCN[C@@H](C)c3ccccc3)cs2)cs1)[C@@H](C)O)[C@@H](O[C@@H]1O[C@@H](CO)[C@@H](O)[C@H](O)[C@@H]1O[C@H]1O[C@H](CO)[C@@H](O)[C@H](OC(N)=O)[C@@H]1O)c1cnc[nH]1.Cl.Cl` [NK631 dihydrochloride (copper-free form)], the Antimicrobial potency in data set [1] is 7,834 u/mg and 7,820 u/mg and 7,845 u/mg. The Solubility result in [2] is on record as “Soluble in water, methanol, acetic acid, DMSO, DMF; also recorded: sparingly soluble in dioxane; also recorded: insoluble in ethanol”.
For `Cc1c(N)nc([C@H](CC(N)=O)NC[C@H](N)C(N)=O)nc1C(=O)N[C@H](C(=O)N[C@H](C)[C@@H](O)[C@H](C)C(=O)N[C@H](C(=O)NCCc1nc(-c2nc(C(=O)NCCCN[C@@H](C)c3ccccc3)cs2)cs1)[C@@H](C)O)[C@@H](O[C@@H]1O[C@@H](CO)[C@@H](O)[C@H](O)[C@@H]1O[C@H]1O[C@H](CO)[C@@H](O)[C@H](OC(N)=O)[C@@H]1O)c1cnc[nH]1.O=S(=O)(O)O` [NK631 monosulfate (copper-free form), 3-[(S)-1'-phenylethylamino]-propylaminobleomycin monosulfate (copper-free form)], the “Grade: Relative value” with lung of mice came to 0.25. Further, in the data set with lung of mice, the “Incidence: Relative value” is 0.36. The “Fibrosis grade reduced to, as compared with RS form” value with lung of mice (relative to RS form) is “about 1/2”. Also, the “Fibrosis incidence reduced to, as compared with RS form” value in the data set with lung of mice (relative to RS form) is “about 1/2”. The “Fibrosis grade reduced to, as compared with bleomycin complex” value in the data set on lung of mice (relative to bleomycin complex) is on record as 1/4. Also, the “Fibrosis incidence reduced to, as compared with bleomycin complex” value in the data set on lung of mice (relative to bleomycin complex) is 1/3. In addition, the Percentage inhibition is given as 19 in data set [3] (0.03 mg/kg x 10); 24 in data set [3] (0.1 mg/kg x 10); 39 in [3] (0.3 mg/kg x 10); 68 in data set [3] (0.9 mg/kg x 10); 84 in [3] (2.7 mg/kg x 10); 47.8 in data set [4]. The compound also came in with an ID50 in [3] of 0.35 mg/kg/day. Moreover, in data set [3] (relative to bleomycin complex), the “Carcinostatic activity, times as high as that of the Bleomycin complex” value was “about 1.4 times”. The “Relative value of average survival days” value with AH66 ascites hepatoma (0.19 mg/kg x 10 i.p.) is 116; in the data set with AH66 ascites hepatoma (0.39 mg/kg x 10 i.p.), 163; with AH66 ascites hepatoma (0.78 mg/kg x 10 i.p.), 216; in the data set with AH66 ascites hepatoma (1.56 mg/kg x 10 i.p.) it was 269; with AH66 ascites hepatoma (setting [7]) it was 296. In data set [4], the Mortality was 1/12. Besides, the “Antimicrobial potency M. 607” value in [1] amounted to 7848 U/mg. Further, the Antimicrobial potency in [1] was 7,865 u/mg. Further, the “Antimicrobial potency B. Sub.” value in the data set on Bacillus subtilis PCI was 1550 U/mg. For the same compound, the Solubility entry in data set [2] was “Soluble in water, methanol, acetic acid, DMSO, DMF; also recorded: sparingly soluble in dioxane; also recorded: insoluble in ethanol”. Besides, the “Subacute and chronic toxicity” value with rats [6] and in the data set on dogs (dogs) was “comparable to Bleomycin complex” in each case. Also, in the data set on dogs (subacute and chronic toxicity study, species not stated separately), the “Toxicity to the lung” value is reported as “lower than that of the Bleomycin complex”. In addition, the LD50 in the data set on rats [5] is listed as 155.0 mg(w)/kg.
With `Cc1c(N)nc(C(CC(N)=O)NCC(N)C(N)=O)nc1C(=O)NC(C(=O)NC(C)C(O)C(C)C(=O)NC(C(=O)NCCc1nc(-c2nc(C(=O)NCCCNC(C)c3ccccc3)cs2)cs1)C(C)O)C(OC1OC(CO)C(O)C(O)C1OC1OC(CO)C(O)C(OC(N)=O)C1O)c1c[nH]cn1` [NK631, 3-[(S)-1'-phenylethylamino]propylaminobleomycin], the “Cell growth inhibition compared with Bleomycin complex” value in the data set with HeLa S3 cell (HeLa S3, 72 hours) is recorded as “twice as strongly as Bleomycin complex”. In the data set with HeLa S3 cell, this compound gave an ID50 of 0.82 mg/L (≈ 0.556 µM).
